The record followed here is US10214515B2, “Substituted pyrazoles as inhibitors of fibroblast growth factor receptor” (Zhejiang Hisun Pharmaceutical Co., Ltd., priority 2015, dated 2019).

Like-named read-outs stand apart in the source and are kept apart here. Where only a bound is given, the exact number is not on record here.

Data set [1] deals with small cell lung cancer cells NCI-H1581. The data set can be described thus: Tumor cell proliferation, CCK-8 kit. The conditions noted are these: Homo sapiens, 72 hours. The class given is cell-based.
Data set [2] concerns human gastric cancer cells KATOIII. Kind of data set: Tumor cell proliferation, CCK-8 kit. The format is cell-based. The conditions noted are these: KATO III, 72 hours.
The subject of data set [3] is small cell lung cancer cells DMS114. Kind of data set: Tumor cell proliferation, CCK-8 kit. The conditions noted are these: Homo sapiens, DMS-114, 72 hours. The class given is cell-based. In general terms: Formazan colour is commonly taken as a measure of viable cells.
Data set [4] has as its system human gastric cancer cells SNU-16. The data set can be described thus: Tumor cell proliferation, CCK-8 kit. The conditions noted are these: SNU-16 cells, 72 hours. The class given is cell-based.
The nature of data set [5]: Pharmacokinetic tests on rats, intragastric, plasma LC/MS/MS. The class given is in vivo. The conditions noted are these: SD rats; for AUC(0-inf) / half-life / Cmax / MRT: male, rat, plasma, po; for AUC(0-inf): read-out: Curve area AUC0-∞; for half-life: read-out: Half-life period T½ (converted); for Cmax: read-out: Plasma concentration Cmax; for MRT: read-out: Residence time MRT. Here is the method:
SD rats were used as the test animals, and the compounds of Examples 12 and 17 were administrated intragastrically to the rats to determine the drug concentration in plasma at different points by LC/MS/MS method. The pharmacokinetic properties of the compounds of the present invention in rats were studied.
The compound of Example 12 (3.5 mg) was weighed, dissolved in 2.2 mL of ethanol, vortexed for 1 minute and sonicated for 1 minute, after that, dissolved in 3.3 mL of PEG400, vortexed for 1 minute and sonicated for 1 minute, and then added with 5.5 mL of deionized water, vortexed for 1 minute. The final concentration of the solution was 0.3 mg/mL, and it was a colorless clear liquid (the pH of the final solution was about 7).
The compound of Example 17 (7.12 mg) was weighed and 7.12 mL of 0.5% sodium carboxymethylcellulose (CMC-Na) (0.5% Tween-20, 0.9% BeOH) was added, vortexed for 3 minutes until a homogeneous suspension was formed;
6 healthy adult SD male rats, after an overnight fast, were administrated intragastrically at the dosage of 3 mg/kg and 5 mg/kg, respectively.
Blood samples were taken from laryngeal vein (0.15 mL), at pre administration and at 15 minutes, 30 minutes, 1 hour, 2 hours, 4 hours, 8 hours, 12 hours, 24 hours, 36 hours and 48 hours post administration, and the samples were stored in heparinized test tubes, and centrifuged for 10 minutes at 5500 r/min. The plasma was stored at −30° C., and the rats were fed 4 hours after administration.
20 μL of sample was taken, 400 μl of acetonitrile solution of IS (5 ng·mL^−1 verapamil and 50 ng·mL^−1 glibenclamide were contained) was added, The mixture was vortexed for 1 minute, and then centrifuged for 8 minutes at 13,000r/min. After that, 70 μL of supernatant was added with 70 μL of water and vortexed for 10 minutes, and an aliquot of 10 μL of the supernatant of the mixture was analyzed in a LC-MS/MS system.
The tested compounds were administrated intragastrically to determine the content of the tested compounds in plasma of rats at different time points by LC-MS/MS method.

The subject of data set [6] is human bladder transplanted cell carcinoma cell SW780. Kind of data set: cells. The conditions noted are these: SW780, 72 h, read-out: IC50(nM)/SW780. From the text: For the FGFR3 subtype, the human bladder transplanted cell carcinoma cell SW780 (purchased from the Chinese Academy of Sciences, Shanghai Institute of Life Sciences, Cell Resource Center) was used, and cultivated according to the corresponding conditions.
The experimental assay can be briefly described as follows: the tested compound was first dissolved in DMSO to prepare a stock solution, then it was subjected to gradient dilution with corresponding cell culture medium to prepare a test sample. The final concentration of the compound is in the range of 30 μM to 0.01 nM. The tumor cells in logarithmic growth phase were inoculated into 96-well cell culture plates at appropriate densities, after the cells were incubated overnight under the corresponding conditions, the tested compound samples were added and the cells were cultured for 72 hours. After completion of the culture, a suitable volume of CCK-8 test solution was added to each well and the cells were incubated at 37° C. for 1 to 4 hours. […] The percentage inhibition rate of the compound at each concentration point was calculated by comparing with the absorbance values of the control group, and then non-linear regression analysis was carried out using logarithmic concentration of the compounds-inhibition rates in the GraphPad Prism 5 software, to obtain the IC50 values for inhibiting cell proliferation of the compounds.

A short description of data set [7]: Pharmacokinetic tests on mice, intragastric, plasma LC/MS/MS. The format is in vivo. Conditions: ICR mice, 100 mg/kg. Here is the method: ICR mice were used as the test animals, and the compound of Example 1 was administrated intragastrically to mice to determine the drug concentration in plasma at different points by LC/MS/MS method. The pharmacokinetic properties of the compound of the present invention were studied in mice.
The compound of Example 1 (50.12 mg) was weighed, added with 5.012 mL of 0.5% sodium carboxymethylcellulose (CMC-Na) (0.5% Tween-20, 0.9% BeOH), vortexed for 3 minutes until a homogeneous suspension was formed;
9 healthy adult ICR mice, after an overnight fast, were administrated intragastrically at a dosage of 100 mg/kg, at a volume of […].
Blood samples were taken from orbital vein (0.08 mL) at pre administration and at 15 minutes, 30 minutes, 1 hour, 2 hours, 4 hours, 8 hours, 12 hours, 24 hours post administration. The samples were stored in heparinized test tubes and centrifuged for 10 minutes at 5500r/min, The plasma were stored at −30° C., and the mice were fed after 4 hours of administration.
10 μL of sample was taken, 100 μl of acetonitrile solution of IS (5 ng·mL^−1 verapamil and 50 ng·mL^−1 glibenclamide were contained) was added, the mixture was vortexed for 10 minutes and centrifuged for 18 minutes at 3,700r/min, After that, 40 μL of supernatant was added with 120 μL of water and vortexed for 10 minutes, and an aliquot of 10 μL of the supernatant of the mixture was analyzed in a LC-MS/MS system.
The tested compounds were administrated intragastrically to determine the content of the tested compounds in plasma of mice at different time points by LC-MS/MS method.

For a further data set, the target named is FGFR3 (Homo sapiens (Human), UniProt P22607). Kind of data set: FGFR kinase activity, HTRF KinEASE-TK (TF-FRET). The format is biochemical. Conditions: recombinant human FGFR3, ATP at Km.
Sequence of FGFR3 (P22607 23-806): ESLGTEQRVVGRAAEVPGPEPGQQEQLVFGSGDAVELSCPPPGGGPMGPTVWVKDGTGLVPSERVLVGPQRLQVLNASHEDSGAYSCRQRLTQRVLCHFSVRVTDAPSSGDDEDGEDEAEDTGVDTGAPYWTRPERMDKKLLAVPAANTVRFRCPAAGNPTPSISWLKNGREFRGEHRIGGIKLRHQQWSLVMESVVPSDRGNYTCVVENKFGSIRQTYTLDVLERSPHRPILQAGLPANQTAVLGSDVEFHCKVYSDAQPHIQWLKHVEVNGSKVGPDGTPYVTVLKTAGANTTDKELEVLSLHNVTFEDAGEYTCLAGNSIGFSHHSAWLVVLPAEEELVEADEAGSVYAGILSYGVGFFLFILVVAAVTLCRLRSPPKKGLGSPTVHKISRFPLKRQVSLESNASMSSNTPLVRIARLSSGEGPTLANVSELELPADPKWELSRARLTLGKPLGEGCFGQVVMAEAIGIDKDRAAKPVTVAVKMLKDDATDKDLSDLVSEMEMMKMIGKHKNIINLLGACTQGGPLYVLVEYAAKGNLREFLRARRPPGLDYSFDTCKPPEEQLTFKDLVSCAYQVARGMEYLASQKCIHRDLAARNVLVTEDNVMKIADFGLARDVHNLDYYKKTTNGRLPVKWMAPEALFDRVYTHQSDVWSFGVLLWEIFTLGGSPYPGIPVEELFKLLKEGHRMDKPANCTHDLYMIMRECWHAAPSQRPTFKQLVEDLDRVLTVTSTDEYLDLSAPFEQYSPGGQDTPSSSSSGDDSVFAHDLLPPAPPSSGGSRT
In the next data set the target is FGFR4 (Homo sapiens (Human), UniProt P22455). The conditions noted are these: read-out: IC50(nM) FGFR4; recombinant human FGFR4, ATP at Km.
Sequence of FGFR4 (P22455 22-802): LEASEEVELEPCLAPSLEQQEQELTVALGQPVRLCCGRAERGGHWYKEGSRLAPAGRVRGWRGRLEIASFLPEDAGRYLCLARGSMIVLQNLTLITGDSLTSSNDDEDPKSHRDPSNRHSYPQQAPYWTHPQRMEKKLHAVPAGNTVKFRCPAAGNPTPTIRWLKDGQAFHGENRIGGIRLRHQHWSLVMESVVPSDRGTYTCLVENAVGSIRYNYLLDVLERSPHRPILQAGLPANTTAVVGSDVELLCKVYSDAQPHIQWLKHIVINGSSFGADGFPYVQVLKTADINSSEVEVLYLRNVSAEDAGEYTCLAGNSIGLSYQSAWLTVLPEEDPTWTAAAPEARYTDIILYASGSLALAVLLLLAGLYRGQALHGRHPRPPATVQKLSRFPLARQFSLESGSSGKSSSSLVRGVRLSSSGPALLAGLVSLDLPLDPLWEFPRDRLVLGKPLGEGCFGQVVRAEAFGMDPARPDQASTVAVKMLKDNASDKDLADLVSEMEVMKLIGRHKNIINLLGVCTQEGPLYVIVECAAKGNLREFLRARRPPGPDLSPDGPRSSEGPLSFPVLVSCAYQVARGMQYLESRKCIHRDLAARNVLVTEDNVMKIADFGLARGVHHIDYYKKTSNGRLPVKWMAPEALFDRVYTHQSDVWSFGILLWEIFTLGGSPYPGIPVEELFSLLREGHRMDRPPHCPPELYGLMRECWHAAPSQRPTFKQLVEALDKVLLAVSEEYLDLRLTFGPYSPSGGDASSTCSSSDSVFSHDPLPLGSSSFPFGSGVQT

Description for FGFR4: This assay used Cisbio's HTRF®KinEASE-TK tyrosine kinase kit (Cat. No. 62TK0PEB), through determining the degree of phosphorylation of the biotinylated polypeptide substrate, the determination was carried out by time-resolved fluorescence energy resonance transfer method (TF-FRET).
For detailed assay, please refer to the kit instructions, the experimental procedure was summarized as follows: the compound of the present invention was first dissolved in DMSO, the solution was subjected to gradient dilution with the buffer solution provided in the kit so that the range of the final concentration of the compound to be tested in the reaction system was 10 μM to 0.1 nM, the final concentration of DMSO was 0.1%. The concentration of the tested adenosine triphosphate (ATP) was the pre-determined Km value corresponding to the ATP of each FGFR subtype. […] Subsequently, an antiphosphorylated tyrosine antibody coupled with a compound containing europium-based element and streptavidin coupled with a modified allophycocyanin XL665 were added to the reaction and the mixture was incubated continuously for 1 hour at room temperature.

As for `Nc1c(C(=O)c2cc3cc(F)ccc3[nH]2)cnn1-c1ccc2[nH]c(C3CC3)nc2c1` [Example 11, (5-amino-1-(2-cyclopropyl-1H-benzo[d]imidazol-5-yl)-1H-pyrazol-4-yl)(5-fluoro-1H-indol-2-yl)methanone], the IC50 in data set [1] came to 119 nM; in data set [2] it was 15 nM.
One may read the half-life as the time in which the quantity being followed falls by half. As usually defined, the MRT is a mean duration of stay, worked out from the concentration-time curve. Regarding `Nc1c(C(=O)c2cc3ccc(F)cc3[nH]2)cnn1-c1ccc2[nH]c(C3CC3)nc2c1` [Example 12, (5-Amino-1-(2-cyclopropyl-1H-benzo[d]imidazol-5-yl)-1H-pyrazol-4-yl)(6-fluoro-1H-indol-2-yl)methanone], the IC50 in data set [3] was determined as 150 nM; in [1], 78 nM; in data set [2], 1.1 nM; in data set [4] it was 5 nM. Also, the “pharmacokinetic properties (in words)” value in data set [5] is listed as “good pharmacokinetic properties”. Besides, the AUC(0-inf) in data set [5] (3 mg/kg) worked out at 80400 ± 24600 ng·h/mL. Moreover, in data set [5] (3 mg/kg), the half-life was 5.38 ± 0.05 h. In addition, in data set [5] (3 mg/kg), the Cmax amounted to 5230 ± 1510 ng/mL. Further, the mean residence time (MRT) in data set [5] (3 mg/kg) came out at 8.18 ± 0.19 h.
Take `CCn1cc(-c2ccc3cc(C(=O)c4cnn(-c5ccc6[nH]c(C7CC7)nc6c5)c4N)[nH]c3c2)cn1` [Example 16, (5-Amino-1-(2-cyclopropyl-1H-benzo[d]imidazol-5-yl)-1H-pyrazol-4-yl)(6-(1-ethyl-1H-pyrazol-4-yl)-1H-indol-2-yl)methanone]: the IC50 in [3] was determined as 56 nM; in data set [1], 40 nM; in [2], 11 nM; in data set [6], 56 nM.
As for `Nc1c(C(=O)c2cc3ccccc3[nH]2)cnn1-c1ccc2[nH]c(C3CC3)nc2c1` [Example 1, (5-amino-1-(2-cyclopropyl-1H-benzo[d]imidazol-5-yl)-1H-pyrazol-4-yl)(1H-indol-2-yl)methanone], the IC50 amounted to 89 nM in data set [3]; 45 nM in [1]; 9 nM in [2]; 4 nM in [4]; 11 nM in [6]. In addition, in data set [7], the “F % (oral availability)” value worked out at 63%. For the same compound, in data set [7], the “pharmacokinetic properties (in words)” value is listed as “good pharmacokinetic properties”. Besides, in data set [7] (mouse, plasma, po, read-out: Curve area AUC0-t), the AUC(0-t) turned out to be 150000 ng·h/mL. Also, in data set [7] (mouse, plasma, po, read-out: Plasma concentration Cmax), the Cmax was 17400 ng/mL.
Regarding `COC(=O)c1nc2cc(-n3ncc(C(=O)c4cc5ccccc5[nH]4)c3N)ccc2[nH]1` [Example 7, Methyl 5-(5-amino-4-(1H-indole-2-carbonyl)-1H-pyrazol-1-yl)-1H-benzo[d]imidazole-2-carboxylate], the IC50 is above 100 nM at FGFR3 and above 10000 nM at FGFR4.
Take `CN1CC=C(c2ccc3cc(C(=O)c4cnn(-c5ccc6[nH]c(C7CC7)nc6c5)c4N)[nH]c3c2)CC1` [Example 14, (5-Amino-1-(2-cyclopropyl-1H-benzo[d]imidazol-5-yl)-1H-pyrazol-4-yl)(6-(1-methyl-1,2,3,6-tetrahydropyrid-4-yl)-1H-indol-2-yl)methanone]: the IC50 was 43 nM in data set [3], 20 nM in data set [1], 4.5 nM in data set [2] and 5.6 nM in data set [4].
In the case of `N#Cc1ccc2cc(C(=O)c3cnn(-c4ccc5[nH]c(C6CC6)nc5c4)c3N)[nH]c2c1` [Example 17, 2-(5-Amino-1-(2-cyclopropyl-1H-benzo[d]imidazol-5-yl)-1H-pyrazole-4-carbonyl)-1H-indole-6-carbonitrile], the IC50 in [3] is 129 nM. The compound also came in with an IC50 in data set [1] of 61 nM. The compound further had an IC50 in data set [2] of 9.8 nM. Besides, the IC50 in data set [6] stood at 106 nM. In data set [5], the “pharmacokinetic properties (in words)” value is given as “good pharmacokinetic properties”. In [5] (5 mg/kg), the AUC(0-inf) was 10300 ± 3490 ng·h/mL, the half-life was 6.6 ± 3.2 h, the Cmax stood at 1040 ± 271 ng/mL and the MRT turned out to be 9.4 ± 5.2 h.
